Experimental data: publication PMC6220272, “Scaffold-Hopping from Synthetic Drugs by Holistic Molecular Representation” (Scientific Reports, 2018)

Experiments:
Assay type in all cases: cell-based
[1] = molecular target: T1, human RXRβ ligand binding domain (Gal4 hybrid receptor) (Homo sapiens, UniProt P28702); assay: Gal4 hybrid reporter gene assay RXRβ; conditions: HEK293T cells, n ≥ 4, read-out: RXRβ EC50 ± SEM
T1 construct: expressed in transfected cells; host or cells: HEK293T
T1 sequence (P28702 296-529 limits assumed): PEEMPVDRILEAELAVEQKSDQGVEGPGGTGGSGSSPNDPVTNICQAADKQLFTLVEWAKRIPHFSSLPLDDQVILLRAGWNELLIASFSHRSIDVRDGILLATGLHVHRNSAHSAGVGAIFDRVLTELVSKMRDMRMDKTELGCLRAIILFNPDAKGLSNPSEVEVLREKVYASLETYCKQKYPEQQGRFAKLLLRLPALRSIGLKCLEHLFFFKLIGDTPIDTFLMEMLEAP
Procedure: The 20 top-ranked synthetic compounds were selected and tested in vitro for their modulatory activity on RXR (Supplementary Table 1). Compounds were tested in specific hybrid reporter gene assays for RXRα, RXRβ and RXRγ modulation[39]–[41]. These assays rely on a constitutively expressed hybrid receptor composed of the respective human RXR ligand binding domain and the DNA binding domain of the Gal4 receptor from yeast. A Gal4 responsive firefly luciferase was used as reporter gene and constitutively expressed renilla luciferase served as internal control for transfection efficiency and test compound toxicity. All selected compounds were tested at 50 µM concentration on RXRα and for active compounds (Supplementary Fig. 1), dose response curves were recorded on all three RXR subtypes.
(§1) The Gal4 hybrid reporter gene assays were conducted as reported previously[39]–[41]. pFA-CMV-based constructs comprising the ligand binding domain of the human nuclear receptor in question were used as expression plasmids for the chimera receptors. pFR-Luc (Stratagene) served as reporter plasmid and pRL-SV40 (Promega) for normalization of transfection efficiency and cell growth. The assays were conducted in 96-well format in HEK293T cells that were cultured as described previously[39]–[41]. Transient transfection was carried out using Lipofectamine LTX reagent (Invitrogen) according to the manufacturer’s protocol. After transfection and incubation with test compounds (12–14 h), cells were assayed for luciferase activity using Dual-Glo™ Luciferase Assay System (Promega) according to the manufacturer’s protocol. Luminescence was measured with an Infinite M200 luminometer (Tecan Deutschland GmbH). All hybrid assays were validated with reference agonists (PPARα: GW7647; PPARγ: pioglitazone; PPARδ: L165,041; LXRα/β: T0901317; FXR: GW4064; RXRs: bexarotene; RARs: tretinoin; VDR: calcitriol; CAR: CITCO; PXR: SR12813) which yielded EC50 values in agreement with literature. The assays were conducted in duplicates with at least two independent repeats and for active compounds repeated without hybrid receptor coding DNA for every test compound at the highest tested concentration to exclude unspecific effects.
Supplementary Figure 2. Dose-response curves for RXRα activation. Compounds were tested in specific hybrid reporter gene assays for RXRα, RXRβ and RXRγ modulation.^1–3 These assays rely on a constitutively expressed hybrid receptor composed of the respective human RXR ligand binding domain and the DNA binding domain of the Gal4 receptor from yeast. A Gal4 responsive firefly luciferase was used as reporter gene and constitutively expressed renilla luciferase served as internal control for transfection efficiency and test compound toxicity. […]

PPARδ = molecular target: T2, PPARδ (Homo sapiens, UniProt Q03181); assay: Gal4 hybrid reporter gene assay PPARδ (selectivity profiling)
T2 construct: expressed in transfected cells; host or cells: HEK293T
T2 sequence (Q03181 211-439 limits assumed): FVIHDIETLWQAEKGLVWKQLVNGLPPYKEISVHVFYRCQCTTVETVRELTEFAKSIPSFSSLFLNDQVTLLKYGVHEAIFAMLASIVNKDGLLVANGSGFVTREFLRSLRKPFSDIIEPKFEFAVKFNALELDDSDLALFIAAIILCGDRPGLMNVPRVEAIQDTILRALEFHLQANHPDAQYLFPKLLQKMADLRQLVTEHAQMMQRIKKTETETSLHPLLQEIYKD
Procedure: (§2) Moreover, 7 was characterized for its ability to modulate RXR target gene expression under more physiological conditions. Hepatoma cells (HepG2) were incubated with 7 (30 µM) or reference RXR agonist bexarotene (9, 1 µM) for eight hours and mRNA expression of RXR regulated genes ATP-binding cassette transporter A1 (ABCA1), angiopoietin like protein 4 (ANGPTL4) and apolipoprotein E (ApoE) was analysed by quantitative real-time PCR.
as §1, with “All hybrid assays were validated with reference agonists (PPARα: GW7647; PPARγ: pioglitazone; PPARδ: L165,041; LXRα/β: T0901317; FXR: GW4064; RXRs: bexarotene; RARs: tretinoin; VDR: calcitriol; CAR: CITCO; PXR: SR12813) which yielded EC50 values in agreement with literature. The assays were conducted in duplicates with at least two independent repeats and for active compounds repeated without hybrid receptor coding DNA for every test compound at the highest tested concentration to exclude unspecific effects.” left out

LXRβ = molecular target: T3, LXRβ (Homo sapiens, UniProt P55055); assay: Gal4 hybrid reporter gene assay LXRβ (selectivity profiling)
T3 construct: expressed in transfected cells; host or cells: HEK293T
T3 sequence (P55055 222-460 limits assumed): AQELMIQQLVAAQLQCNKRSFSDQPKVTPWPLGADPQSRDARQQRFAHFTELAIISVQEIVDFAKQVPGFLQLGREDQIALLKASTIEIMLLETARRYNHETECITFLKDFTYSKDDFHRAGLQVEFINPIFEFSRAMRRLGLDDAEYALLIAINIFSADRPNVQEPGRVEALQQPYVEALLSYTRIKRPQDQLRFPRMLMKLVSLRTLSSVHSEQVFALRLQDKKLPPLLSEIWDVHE
Procedure: as §2
as §1, with “All hybrid assays were validated with reference agonists (PPARα: GW7647; PPARγ: pioglitazone; PPARδ: L165,041; LXRα/β: T0901317; FXR: GW4064; RXRs: bexarotene; RARs: tretinoin; VDR: calcitriol; CAR: CITCO; PXR: SR12813) which yielded EC50 values in agreement with literature. The assays were conducted in duplicates with at least two independent repeats and for active compounds repeated without hybrid receptor coding DNA for every test compound at the highest tested concentration to exclude unspecific effects.” left out

RARα = molecular target: T4, RARα (Homo sapiens, UniProt P10276); assay: Gal4 hybrid reporter gene assay RARα (selectivity profiling)
T4 construct: expressed in transfected cells; host or cells: HEK293T
T4 sequence (P10276 183-417 limits assumed): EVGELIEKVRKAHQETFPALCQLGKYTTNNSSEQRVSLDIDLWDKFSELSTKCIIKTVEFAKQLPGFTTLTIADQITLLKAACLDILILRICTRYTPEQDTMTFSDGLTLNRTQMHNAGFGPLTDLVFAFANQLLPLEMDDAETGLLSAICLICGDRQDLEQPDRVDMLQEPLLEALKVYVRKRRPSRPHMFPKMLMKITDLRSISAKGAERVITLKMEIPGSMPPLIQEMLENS
Procedure: as §2
as §1, with “All hybrid assays were validated with reference agonists (PPARα: GW7647; PPARγ: pioglitazone; PPARδ: L165,041; LXRα/β: T0901317; FXR: GW4064; RXRs: bexarotene; RARs: tretinoin; VDR: calcitriol; CAR: CITCO; PXR: SR12813) which yielded EC50 values in agreement with literature. The assays were conducted in duplicates with at least two independent repeats and for active compounds repeated without hybrid receptor coding DNA for every test compound at the highest tested concentration to exclude unspecific effects.” left out

RARγ = molecular target: T5, RARγ (Homo sapiens, UniProt P13631); assay: Gal4 hybrid reporter gene assay RARγ (selectivity profiling)
T5 construct: expressed in transfected cells; host or cells: HEK293T
T5 sequence (P13631 185-419 limits assumed): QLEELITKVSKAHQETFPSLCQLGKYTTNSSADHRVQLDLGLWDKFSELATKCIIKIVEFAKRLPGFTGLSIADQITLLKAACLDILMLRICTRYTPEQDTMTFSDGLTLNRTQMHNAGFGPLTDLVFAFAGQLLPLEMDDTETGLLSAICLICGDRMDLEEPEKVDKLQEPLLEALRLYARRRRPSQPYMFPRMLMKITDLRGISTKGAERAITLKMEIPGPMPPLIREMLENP
Procedure: as §2
as §1, with “All hybrid assays were validated with reference agonists (PPARα: GW7647; PPARγ: pioglitazone; PPARδ: L165,041; LXRα/β: T0901317; FXR: GW4064; RXRs: bexarotene; RARs: tretinoin; VDR: calcitriol; CAR: CITCO; PXR: SR12813) which yielded EC50 values in agreement with literature. The assays were conducted in duplicates with at least two independent repeats and for active compounds repeated without hybrid receptor coding DNA for every test compound at the highest tested concentration to exclude unspecific effects.” left out

HepG2 cells = assay: Toxicity assay (WST-1, water-soluble tetrazolium assay); conditions: WST-1, HepG2 cells, 48 h
Procedure: WST-1 assay (Roche Diagnostics International AG, Rotkreuz, Schweiz) was performed according to manufacturer’s protocol in HepG2 cells. Cells were incubated with the test compounds (final concentrations: 1 µM, 10 µM, 30 µM, 50 µM and 100 µM) in DMEM/1% DMSO, and DMEM/1% DMSO as negative control. After 48 h, WST reagent (Roche Diagnostics International AG) was added to each well according to manufacturer’s instructions. After 45 min incubation, absorption (450 nm/reference: 620 nm) was determined with a Tecan Infinite M200 (Tecan Deutschland GmbH). Each experiment was set up in duplicates and repeated in four independent experiments. Results are expressed as mean ± SEM% of DMSO (0.1%) control.

EC50 [1]: 25.1 ± 0.1 µM
activity on PPARδ (PPARδ): no activity
activity on LXRβ (LXRβ): no activity
activity on RARα (RARα): no activity
activity on RARγ (RARγ): no activity
Compound: CC(C)(C)c1cc(/C=N/NC(=O)c2ccc(N)cc2)cc(C(C)(C)C)c1 [Compound 7]
concentration up to which no cytotoxic effect was seen (HepG2 cells): > 100 µM
